In US7473692B2, “Sulfonamide derivatives as D3-receptor ligands” (Richter Gedeon Vegyeszeti Gyar Rt., priority 2001, dated 2009):
Structures can show the parent of a compound that is named as a salt.

What was measured:
[1] = target: T1, rat recombinant D3 receptors expressed in Sf9 cells (Rattus norvegicus, UniProt P19020); experiment: D3 receptor binding ([3H]-spiperone); conditions: [3H]-spiperone 0.4 nM; non-specific binding with haloperidol 10 μM
T1 construct: purchased Research Biochemical International D-181; host or cells: Sf9 cells
T1 sequence (P19020 whole entry): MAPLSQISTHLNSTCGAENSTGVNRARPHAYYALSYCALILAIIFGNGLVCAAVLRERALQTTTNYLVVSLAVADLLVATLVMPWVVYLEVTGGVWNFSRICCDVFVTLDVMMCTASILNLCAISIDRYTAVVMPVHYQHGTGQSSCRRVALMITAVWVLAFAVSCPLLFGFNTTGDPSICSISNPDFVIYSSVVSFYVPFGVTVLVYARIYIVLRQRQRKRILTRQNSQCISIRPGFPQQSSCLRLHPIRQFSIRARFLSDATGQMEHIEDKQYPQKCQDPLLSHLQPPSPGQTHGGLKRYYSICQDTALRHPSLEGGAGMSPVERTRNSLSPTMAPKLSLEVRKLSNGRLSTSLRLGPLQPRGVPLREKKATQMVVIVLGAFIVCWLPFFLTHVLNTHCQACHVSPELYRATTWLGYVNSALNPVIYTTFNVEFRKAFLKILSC
Description: Binding study was carried out on rat recombinant D3 receptors expressed in Sf9 cells using [^3H]-spiperone (0.4 nM) as ligand and haloperidol (10 μM) for determination of non-specific binding.

[2] = target: T2, D2 receptor, rat striatal tissue (Rattus norvegicus, UniProt P61169); experiment: D2 receptor binding ([3H]-spiperone); conditions: [3H]-spiperone 0.5 nM, non-specific binding with (±)-sulpiride 10 μM
T2 construct: from tissue; host or cells: rat striatal tissue
T2 sequence (P61169 whole entry): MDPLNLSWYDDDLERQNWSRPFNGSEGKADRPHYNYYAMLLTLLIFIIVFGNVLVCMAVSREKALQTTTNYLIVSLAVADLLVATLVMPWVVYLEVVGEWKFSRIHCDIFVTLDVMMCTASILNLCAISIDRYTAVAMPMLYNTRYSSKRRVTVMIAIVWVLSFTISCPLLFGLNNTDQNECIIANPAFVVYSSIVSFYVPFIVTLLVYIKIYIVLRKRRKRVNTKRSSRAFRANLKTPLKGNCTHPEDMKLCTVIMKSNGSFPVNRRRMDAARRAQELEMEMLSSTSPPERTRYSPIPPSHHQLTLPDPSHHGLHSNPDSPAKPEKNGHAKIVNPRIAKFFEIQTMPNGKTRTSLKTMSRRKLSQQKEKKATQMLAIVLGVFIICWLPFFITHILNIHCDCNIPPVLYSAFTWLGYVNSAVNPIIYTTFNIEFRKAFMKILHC
Description: Binding of [^3H]-spiperone (0.5 nM) to rat striatal tissue was measured according to the method of Seeman (J. Neurochem., 1984, 43 221-235). The non-specific binding was determined in the presence of (±)-sulpiride (10 μM).

| SMILES | IC50 [1] | IC50 [2] | melting point |
| --- | --- | --- | --- |
| N#Cc1cc(N2CCN(CC[C@H]3CC[C@H](NS(=O)(=O)c4ccc(Cl)cc4)CC3)CC2)cc(C(F)(F)F)c1 [compound 70001492, Trans-4-chloro-N-(4-{2-[4-(3-cyano-5-trifluoromethyl-phenyl)-piperazin-1-yl]-ethyl}-cyclohexyl)-benzenesulfonamide] | 2 nM | 65 nM |  |
| CN(C)S(=O)(=O)N[C@H]1CC[C@H](CCN2CCN(c3cc(C#N)cc(C(F)(F)F)c3)CC2)CC1 [compound 70001788, Trans-N′-(4-{2-[4-(3-cyano-5-trifluoromethyl-phenyl)-piperazin-1-yl]-ethyl}-cyclohexyl)-N,N-dimethyl-sulfamide] | 1.5 nM | 290 nM |  |
| CCCCS(=O)(=O)N[C@H]1CC[C@H](CCN2CCN(c3ccc(-c4ccccc4)cc3OC)CC2)CC1 [compound 70001485, Trans-N-(4-{2-[4-(3-methoxy-biphenyl-4-yl)-piperazin-1-yl]-ethyl}-cyclohexyl)-buthanesulfonamide] | 5.5 nM | 2590 nM |  |
| CCCCS(=O)(=O)N[C@H]1CC[C@H](CCN2CCN(c3cccc(C(F)(F)F)c3)CC2)CC1 [compound 70001596, Trans-N-(4-{2-[4-(3-trifluoromethyl-phenyl)-piperazin-1-yl]-ethyl}-cyclohexyl)-buthanesulfonamide] | 0.6 nM | 110 nM |  |
| O=S(=O)(N[C@H]1CC[C@H](CCN2CCC(Nc3cccc(C(F)(F)F)c3)CC2)CC1)c1ccc(Cl)cc1 [compound 70001589, Trans-4-chloro-N-(4-{2-[4-(3-trifluoromethyl-phenylamino)-piperidin-1-yl]-ethyl}-cyclohexyl)-benzenesulfonamide] | 3 nM | 16 nM |  |
| O=S(=O)(N[C@H]1CC[C@H](CCN2CCN(c3cccc(C(F)(F)F)c3)CC2)CC1)c1cccnc1 [compound 70001935, Trans-N-(4-{2-[4-(3-trifluoromethyl-phenyl)-piperazin-1-yl]-ethyl}-cyclohexyl)-3-pyridinesulfoamide] | 0.3 nM | 29 nM |  |
| CCCCS(=O)(=O)N[C@H]1CC[C@H](CCN2CCC(Nc3cccc(C(F)(F)F)c3)CC2)CC1 [compound 70001588, Trans-N-(4-{2-[4-(3-trifluoromethyl-phenylamino)-piperidin-1-yl]-ethyl}-cyclohexyl)-buthanesulfonamide] | 2.5 nM | 102 nM |  |
| N#Cc1cc(N2CCN(CC[C@H]3CC[C@H](NS(=O)(=O)c4ccc(Cl)s4)CC3)CC2)cc(C(F)(F)F)c1 [compound 70001766, Trans-5-chloro-N-(4-{2-[4-(3-cyano-5-trifluoromethyl-phenyl)-piperazin-1-yl]-ethyl}-cyclohexyl)-2-thiophenesulfonamide] | 5.3 nM | 128 nM |  |
| COc1cc(-c2ccccc2)ccc1N1CCN(CC[C@H]2CC[C@H](NS(=O)(=O)N(C)C)CC2)CC1 (as salt: hydrochloride) [compound 70001488, Trans-N′-(4-{2-[4-(3-methoxy-biphenyl-4-yl)-piperazin-1-yl]-ethyl}-cyclohexyl)-N,N-dimethyl] |  |  | 243 to 246 °C |
| O=S(=O)(N[C@H]1CC[C@H](CCN2CCC(Cc3cccc(F)c3)CC2)CC1)c1ccc(Cl)cc1 [compound 70001686, Trans-4-chloro-N-(4-{2-[4-(3-fluoro-phenylmethyl)-piperidin-1-yl]-ethyl}-cyclohexyl)-benzenesulfonamide] | 3.9 nM | 345 nM |  |
| O=S(=O)(N[C@H]1CC[C@H](CCN2CCC(Oc3cccc(C(F)(F)F)c3)CC2)CC1)c1cccnc1 [compound 70001875, Trans-N-(4-{2-[4-(3-trifluoromethyl-phenoxy)-piperidin-1-yl]-ethyl}-cyclohexyl)-3-pyridinesulfonamide] | 2.8 nM | 66 nM |  |
| O=S(=O)(CCCN1CCOCC1)N[C@H]1CC[C@H](CCN2CCN(c3cccc(C(F)(F)F)c3)CC2)CC1 [compound 70001934, Trans-N-(4-{2-[4-(3-trifluoromethyl-phenyl)-piperazin-1-yl]-ethyl}-cyclohexyl)-4-morpholinepropanesulfonamide] | 1 nM | 109 nM |  |
| COc1cc(-c2ccccc2)ccc1N1CCN(CC[C@H]2CC[C@H](NS(=O)(=O)N(C)C)CC2)CC1 [compound 70001488, Trans-N′-(4-{2-[4-(3-methoxy-biphenyl-4-yl)-piperazin-1-yl]-ethyl}-cyclohexyl)-N,N-dimethyl] | 4.3 nM | 245 nM |  |
